Legend:
[1] = system: S. aberdeen; test: Direct binding Salmonella assay on food cultures; conditions: white plate, Lucy 1
Method: 25 g of a food sample were added to 225 ml culture medium according to the first aspect of the invention. Alternatively a surface swab may be taken from a 10×10 cm area on a carcass and cultured in 2-5 ml culture medium according to the first aspect of the invention. Specifically the culture medium comprised 1% peptone, 8 g/L sodium tetrathionate and 0.15 mg/L brilliant green. […]
The sample was heated to 100° C. for 5 minutes and allowed to cool. One hundred microlitres of each test sample was added directly to a well of a solid white 96 well high binding microtitre plate (Greiner Bio One) and incubated at 37° C. for 30 minutes. During incubation, the lipid A portion of the LPS binds to the surface of the plate via non-covalent hydrophobic interactions (FIG. 1a (1), FIG. 1b(1)). Following incubation the plate was emptied and the wells washed three times with a wash buffer comprising 0.01M sodium phosphate buffer, pH 7.4, containing 0.147M NaCl and 0.05 (v/v) Tween 20.
White Plate read on Lucy 1 luminometer

[2] = system: S. aberdeen; test: Direct binding Salmonella assay (chemiluminescence immunosorbent); conditions: for signal, direct binding Salmonella assay: conjugate 1:100; for signal, release and detection of core oligosaccharide: 0.1% SDS

With `CCCCCCCCCCCCOS(=O)(=O)[O-].[Na+]` [SDS, sodium dodecyl sulphate] the “signal, food culture” value ([1]; 0.1% SDS, +ve Chicken (10 C.F.U. S. aberdeen, 18 hours)) was 131,488 ± 15,357, the “signal, food culture” value ([1]; 0.1% SDS, +ve Drinking Chocolate (10 C.F.U. S. aberdeen, 18 hours)) was 45,626 ± 3204 and the “signal, food culture” value ([1]; 0.1% SDS, +ve Mayonnaise (10 C.F.U. S. aberdeen, 18 hours)) was 746,670 ± 86,449. The “signal, food culture” value ([1]; 0.1% SDS, −ve Chicken) was 3426 ± 316, the “signal, food culture” value ([1]; 0.1% SDS, −ve Drinking Chocolate) was 1315 ± 63 and the “signal, food culture” value ([1]; 0.1% SDS, −ve Mayonnaise) was 4180 ± 610. For the same molecule, the “signal, food culture” value ([1]; 0.5% SDS, +ve Chicken (10 C.F.U. S. aberdeen, 18 hours)) was 36,770 ± 2,020, the “signal, food culture” value ([1]; 0.5% SDS, +ve Drinking Chocolate (10 C.F.U. S. aberdeen, 18 hours)) was 110,756 ± 5737^ and the “signal, food culture” value ([1]; 0.5% SDS, +ve Mayonnaise (10 C.F.U. S. aberdeen, 18 hours)) was 387,924 ± 106,504. For the same molecule, the “signal, food culture” value ([1]; 0.5% SDS, −ve Chicken) was 4494 ± 904, the “signal, food culture” value ([1]; 0.5% SDS, −ve Drinking Chocolate) was 3266 ± 142 and the “signal, food culture” value ([1]; 0.5% SDS, −ve Mayonnaise) was 3260 ± 733. The “signal, direct binding Salmonella assay” value ([2]; 0% SDS, 2.5 × 10^4 S. aberdeen, black and white plates) was 1,617 ± 250, the “signal, direct binding Salmonella assay” value ([2]; 0% SDS, 5 × 10^3 S. aberdeen, black and white plates) was 575 ± 120 and the “signal, direct binding Salmonella assay” value ([2]; 0% SDS, 5 × 10^4 S. aberdeen, black and white plates) was 2,027 ± 206. For the same molecule, the “signal, direct binding Salmonella assay” value ([2]; 0% SDS, 10^4 S. aberdeen, black and white plates) was 1,102 ± 357, the “signal, direct binding Salmonella assay” value ([2]; 0% SDS, 10^5 S. aberdeen, black and white plates) was 3,131 ± 121 and the “signal, direct binding Salmonella assay” value ([2]; 0% SDS, 10^6 S. aberdeen, black and white plates) was 24,566 ± 4,287. The “signal, direct binding Salmonella assay” value ([2]; 0% SDS, Peptone, black and white plates) was 643 ± 54, the “signal, direct binding Salmonella assay” value ([2]; 0.1% (w/v) SDS, 2.5 × 10^4 S. aberdeen, white plate, Lucy I) was 28,622 ± 2,162 and the “signal, direct binding Salmonella assay” value ([2]; 0.1% (w/v) SDS, 5 × 10^3 S. aberdeen, white plate, Lucy I) was 8,536 ± 1,520. For the same molecule, the “signal, direct binding Salmonella assay” value ([2]; 0.1% (w/v) SDS, 5 × 10^4 S. aberdeen, white plate, Lucy I) was 51,909 ± 3,036, the “signal, direct binding Salmonella assay” value ([2]; 0.1% (w/v) SDS, 10^4 S. aberdeen, white plate, Lucy I) was 11,324 ± 2,770 and the “signal, direct binding Salmonella assay” value ([2]; 0.1% (w/v) SDS, 10^5 S. aberdeen, white plate, Lucy I) was 143,796 ± 4,297. The “signal, direct binding Salmonella assay” value ([2]; 0.1% (w/v) SDS, 10^6 S. aberdeen, white plate, Lucy I) was 356,444 ± 102,877, the “signal, direct binding Salmonella assay” value ([2]; 0.1% (w/v) SDS, Peptone, white plate, Lucy I) was 4,288 ± 1.653 and the “signal, direct binding Salmonella assay” value ([2]; 0.1% SDS (first block), 2.5 × 10^4 S. aberdeen, black and white plates) was 1,277 ± 211. For the same molecule, the “signal, direct binding Salmonella assay” value ([2]; 0.1% SDS (first block), 5 × 10^3 S. aberdeen, black and white plates) was 591 ± 1, the “signal, direct binding Salmonella assay” value ([2]; 0.1% SDS (first block), 5 × 10^4 S. aberdeen, black and white plates) was 1,297 ± 4 and the “signal, direct binding Salmonella assay” value ([2]; 0.1% SDS (first block), 10^4 S. aberdeen, black and white plates) was 1,662 ± 531. For the same molecule, the “signal, direct binding Salmonella assay” value ([2]; 0.1% SDS (first block), 10^5 S. aberdeen, black and white plates) was 2,386 ± 263, the “signal, direct binding Salmonella assay” value ([2]; 0.1% SDS (first block), 10^6 S. aberdeen, black and white plates) was 16,738 ± 1051 and the “signal, direct binding Salmonella assay” value ([2]; 0.1% SDS (first block), Peptone, black and white plates) was 643 ± 54. The “signal, direct binding Salmonella assay” value ([2]; 0.1% SDS (second block), 2.5 × 10^4 S. aberdeen, black and white plates) was 1,442 ± 28^, the “signal, direct binding Salmonella assay” value ([2]; 0.1% SDS (second block), 5 × 10^3 S. aberdeen, black and white plates) was 678 ± 40 and the “signal, direct binding Salmonella assay” value ([2]; 0.1% SDS (second block), 5 × 10^4 S. aberdeen, black and white plates) was 2321 ± 437. For the same molecule, the “signal, direct binding Salmonella assay” value ([2]; 0.1% SDS (second block), 10^4 S. aberdeen, black and white plates) was 930 ± 21, the “signal, direct binding Salmonella assay” value ([2]; 0.1% SDS (second block), 10^5 S. aberdeen, black and white plates) was 4,654 ± 636 and the “signal, direct binding Salmonella assay” value ([2]; 0.1% SDS (second block), 10^6 S. aberdeen, black and white plates) was 28,169 ± 1516. The “signal, direct binding Salmonella assay” value ([2]; 0.1% SDS (second block), Peptone, black and white plates) was 503 ± 76, the “signal, release and detection of core oligosaccharide” value (“signal, release and detection” for short) ([2]; 10^1 bacteria (species not given)) was 10248 relative light units and the “signal, release and detection” value ([2]; 10^2 bacteria (species not given)) was 9525 relative light units. The “signal, release and detection” value ([2]; 10^3 bacteria (species not given)) was 12375 relative light units, the “signal, release and detection” value ([2]; 10^4 bacteria (species not given)) was 65960 relative light units and the “signal, release and detection” value ([2]; 10^5 bacteria (species not given)) was 717259 relative light units. The “signal, release and detection” value ([2]; 10^6 bacteria (species not given)) was 895811 relative light units, the “signal, direct binding Salmonella assay” value ([2]; 0.2% (w/v) SDS, 2.5 × 10^4 S. aberdeen, white plate, Lucy I) was 27,339 ± 2,635 and the “signal, direct binding Salmonella assay” value ([2]; 0.2% (w/v) SDS, 5 × 10^3 S. aberdeen, white plate, Lucy I) was 10,334 ± 2,264. The “signal, direct binding Salmonella assay” value ([2]; 0.2% (w/v) SDS, 5 × 10^4 S. aberdeen, white plate, Lucy I) was 75,900 ± 5,798, the “signal, direct binding Salmonella assay” value ([2]; 0.2% (w/v) SDS, 10^4 S. aberdeen, white plate, Lucy I) was 11,098 ± 828^ and the “signal, direct binding Salmonella assay” value ([2]; 0.2% (w/v) SDS, 10^5 S. aberdeen, white plate, Lucy I) was 112,096 ± 3,841. The “signal, direct binding Salmonella assay” value ([2]; 0.2% (w/v) SDS, 10^6 S. aberdeen, white plate, Lucy I) was 365,496 ± 12,729, the “signal, direct binding Salmonella assay” value ([2]; 0.2% (w/v) SDS, Peptone, white plate, Lucy I) was 3,904 ± 59^ and the “signal, direct binding Salmonella assay” value ([2]; 0.3% SDS, 2.5 × 10^4 S. aberdeen, white plate, Lucy I) was 38,450 ± 1,411. The “signal, direct binding Salmonella assay” value ([2]; 0.3% SDS, 5 × 10^3 S. aberdeen, white plate, Lucy I) was 14,313 ± 2,881 and the “signal, direct binding Salmonella assay” value ([2]; 0.3% SDS, 5 × 10^4 S. aberdeen, white plate, Lucy I) was 123,881 ± 15,994.

Reference: patent US20110159515A1, “COMPOSITIONS AND METHODS FOR THE RAPID GROWTH AND DETECTION OF MICROORGANISMS” (SOLUS SCIENTIFIC SOLUTIONS LIMITED, priority 2008, published 2011)
